What all share (format): cell-based
The test system of test [1] is HeLa cells. The test can be described thus: LCDA quantification of Ebastine-induced cell death in HeLa cells (FIG. 7). Conditions: 50 uM Ebastin, treated right before acquisition; versus control well; 5 h post treatment. The source says: FIG. 7: Application of LCDA to quantify Ebastine-induced cell death—HeLa cells grown in two wells were used as (A) control and (B) treatment experiment.

In test [2] the test system is 3T3-L1-derived preadipocyte cells. The test is described as follows: LCDA quantification of Ebastin-induced cell death in 3T3-L1-derived preadipocytes. Conditions: 20 μM Ebastin added 1 hour before acquisition; versus untreated cells. As for the experimental part:
It was finally concluded by quantifying the capacity of another drug to kill cells, Ebastin, to validate the simplest of the uses of the LCDA. 3T3-L1-derived preadipocyte cells were seeded in 35 mm dish at ˜30,000 cells/ml and let to grow for 48 h in DMEM supplemented with 10% FBS.

The test system is the same in test [3]. The test can be described thus: Live cell death assay (LCDA) benchmarked with live fluorescent cell death kit, camptothecin treatment. Conditions: 2.5 μM camptothecin added 4 hours before acquisition; imaged for 17.5 hours; versus without camptothecin. The source says: To validate the performance of the LCDA, the invention method was benchmarked with a state-of-the-art live fluorescent kit (FIG. 6). 3t3-derived preadipocytes were imaged on an optical diffraction tomography system combining RI recording and epifluorescence, with and without addition of camptothecin, a proapoptotic drug (FIG. 6). Annexin V-Cy5 and Nuclear Green DCS1 were used as fluorescent markers to detect apoptosis and necrosis, respectively. The RI images of the kit-stained cells were also analyzed with the LCDA. The cell death information provided by the fluorescent signals contained within the RI segmentation masks was then compared, with the LCDA results (FIG. 6, E and F).
3T3-L1-derived preadipocyte cells were seeded in a 35 mm dish at ˜30,000 cells/ml and let to grow for 48 h in DMEM supplemented with 10% FBS. 4 hours before starting the acquisition, the cells were treated with 2.5 μM camptothecin (abcam—ab120115) to induce apoptosis. 10 minutes before starting the acquisition, Annexin V-Cy5 and Nuclear Green DCS1 (abcam—ab14147, ab138905) were added to the medium, following the supplier's protocol. […]
RI images were then analyzed and plotted with the LCDA module's features. Fluorescence was quantified by measuring the mean intensity in each cell using RI segmentations using an independent image analysis tool. […]

Consider two compounds from patent US20260094266A1, “DIGITAL SYSTEM FOR CELL ASSAYS USING LABEL FREE MICROSCOPY” (NANOLIVE SA, priority 2022, published 2026).

For `CC(C)(C)c1ccc(C(=O)CCCN2CCC(OC(c3ccccc3)c3ccccc3)CC2)cc1` [Ebastin], the “number of dead cells predicted over time (cell death rate)” value in test [1] was “higher cell death rate in the treated condition already at 5 h post treatment”. For the same compound, the “induced cell death over time (LCDA)” value in test [2] is “treated cells show a very clear curve of induced cell death”.
For `CC[C@@]1(O)C(=O)OCc2c1cc1n(c2=O)Cc2cc3ccccc3nc2-1` [camptothecin], in test [3], the “death of cells (LCDA and Annexin V-Cy5 / Nuclear Green DCS1 fluorescence)” value was “accelerates greatly the death of cells and results in the whole cell population dying by the end of the experiment”.
